Where two headings read alike, the source gives them in different places.
Assays:
[1] = tested on: human lung tumor cell line LX-T; test: Antitumor effect against human lung tumor cell line LX-T (clonogenic assay / DNA flow cytometry with DAPI, Example 5); assay type: cell-based
Protocol: The antitumor effect of NDGA against the human lung tumor cell line LX-T was determined utilizing a clonogenic assay.
Serial dilutions of the test stock solutions were made in 15 ml of Ca^2+ --and Mg^2+ --free Hank's balanced salt solution (HBSS).
The LX-T cells were incubated in the presence of various amounts of NDGA, and the antitumor effect was determined by measuring the DNA […] of the LX-T nuclei using DNA flow cytometric analysis with a DNA-specific fluorochrome, 4', 6-diamidino-2-phenylindole (DAPI).

[2] = tested on: human breast adenocarcinoma, MX-1; test: Antineoplastic activity by topical application in athymic mice implanted intradermally with human breast adenocarcinoma MX-1 (Examples 7 and 8); assay type: in vivo; details: 4.4 wt/wt% composition (Table 8)
Protocol: A composition containing 17.6% NDGA and 1% BHT in Pego 400 was tested for antineoplastic activity in athymic mice implanted with human breast adenocarcinoma, MX-1. Each animal was innoculated intradermally on the dorsum near the nape of the neck with 0.5 ml of a MX-1 homogenate. The animals were treated by topical application with the NDGA composition after day 23. Compositions containing 4.4 wt/wt% of meso and DL NDGA were tested for efficacy against the MX-1 tumor as in Example 7.

[3] = tested on: MC-1 equine sarcoid-derived cell line; test: Inhibition of in vitro colony growth of MC-1 equine sarcoid-derived cell line (Example 4); assay type: cell-based; details: for inhibition at 18 µM / inhibition at 27 µM / inhibition at 56 µM: Equus caballus, 336 h; for inhibition at 18 µM: 18 MicroMolar; for inhibition at 27 µM: 27 MicroMolar; for inhibition at 56 µM: 56 MicroMolar
Protocol: (§1) Single cell suspensions of tumor cells harvested from culture flasks were exposed to the different compositions of NDGA for one hour at 37° C in liquid medium, and the cells were then washed twice, suspended in agarose medium and plated and the number of colony forming cells were determined. Results are expressed as percent inhibition of survival of clonogenic cells in treated cultures relative to nontreated control cultures. Significant anticancer activity was defined as>70% inhibition of the survival of colony-forming (tumor) cells.
Compositions of NDGA were tested for their ability to inhibit in vitro growth of the MC-1 equine sarcoid-derived cell line, in experiments similar to those of Example 3.

[4] = tested on: human cancer patients; details: ingested; Smart et al. 1970; cited from earlier work
[5] = tested on: CMT-12 cultured canine breast adenocarcinoma tumor cells; test: Clonogenic assay, antiproliferative effect on CMT-12 canine breast adenocarcinoma cells (Example 3); assay type: cell-based; details: for No. Tumor Colonies Surviving: one hour at 37° C
Protocol: The antiproliferative effect of NDGA on CMT-12 cultured canine breast adenocarcinoma tumor cells was evaluated in clonogenic (cancer cell) assays.
as §1

[6] = Stability against oxidation; assay type: physicochemical; details: for example, by air; more stable at lower pH
Text: The pH of the formulation is important in assuring stability of the catecholic butane as well as assuring that the formulation is physiologically acceptable to the patient. […] Such oxidation can result in discoloration of the formulation rendering it unacceptable for pharmaceutical use. […] Therefore, it is preferred that if the formulation is to be exposed to oxidizing conditions the pH be maintained below about 7.5 and preferably below about 6 in order to provide maximum stability for the catechol against oxidation. However, if oxidizing conditions can be avoided, for example, by storage of the formulation under an inert atmosphere such as nitrogen, a higher pH can be used. The pH of the formulation may be maintained through the use of toxicologically-acceptable buffers. Such buffers are well known in the pharmaceutical formulation art, and include hydrochloric acid buffer, acid phthalate buffer, phosphate buffer and citric acid/sodium citrate buffer.

[7] = tested on: hepatic and colon carcinoma; test: Treatment of hepatic and colon carcinoma
Text: The catecholic butanes, when applied parenterally or by injection, are excreted primarily through the liver and gut, and therefore exert preferential cytotoxicity to tumors located in those organs.

[8] = tested on: human breast adenocarcinoma (MX-1); test: Effect against human breast adenocarcinoma (MX-1)
[9] = tested on: MX-1 (human breast adenocarcinoma) cells; test: In vivo antitumor effect on MX-1 cells implanted subcutaneously in nude mice, intratumoral injection (Example 6); details: 0.1 ml injected directly into the tumor
Protocol: The in vivo antitumor effect of NDGA at various survival levels was determined using MX-1 (human breast adenocarcinoma) cells implanted subcutaneously in the flank of nude mice.
Tumors which reached the 25-100 mm^2 range were used for the experiment. 0.1 ml of the test compound in solution was injected directly into the tumor. The tumors were measured periodically to determine their weight until 60 days after the initial treatment or all mice had died.

[10] = tested on: melanoma (B-16); test: Effect against melanoma (B-16); set-up: species or system mouse
[11] = tested on: tumor cells; test: Enhancement of X-ray radiation effectiveness by topical application; details: applied topically; without radiation toxicity to surrounding uninvolved skin
Text: Consequently, the catecholic butanes may be useful in the treatment of cutaneous afflictions such as Kaposi's sarcoma.

[12] = tested on: TPA tumor promotion; test: Antipromoting activity in mice: DMBA+NDGA+TPA (Example 9); assay type: in vivo, SENCAR mice; details: NDGA 9 mg topical 30 minutes prior to each TPA application
Protocol: (§2) Mice were exposed to dimethyl benzanthracene (DMBA), a classical tumor inducer, and to phorbol ester (TPA), a classical tumor promoter, after having been treated with NDGA.
(§3) Twenty mice were included in each of the following groups:
(§4) 1. Positive control group: DMBA+TPA. Female SENCAR mice 6-8 weeks old received a single topical application of […] of DMBA in 0.2 ml of acetone as the initiating agent. After one week, animals received twice weekly applications of tumor promoter TPA in 0.1 ml of acetone. Tumor formation was recorded weekly.
2. Antipromoting activity: DMBA+NDGA+TPA. 30 minutes prior to each application of TPA animals received topical application of NDGA (9 mg.) in 0.2 ml of acetone.

[13] = Absorption of harmful sunlight (ultraviolet) radiation (Example 10); assay type: physicochemical
Protocol: The ability of NDGA to absorb harmful sunlight radiation was tested.

[14] = tested on: tumor induction by DMBA; test: Anticarcinogenic activity in mice: NDGA+DMBA+TPA (Example 9); assay type: in vivo, SENCAR mice; details: NDGA 3 mg topical, five consecutive days before DMBA and TPA
Protocol: as §2, §3, §4
3. Anticarcinogenic activity: NDGA+DMBA+TPA. For five consecutive days animals received topical applications of NDGA (3 mg.) in 0.2 ml of acetone. 24 hours after the last treatment with NDGA, animals received DMBA and TPA exactly as in the positive control group.

[15] = tested on: several types of cancer cells; details: Leiter et al.; cited from earlier work
[16] = tested on: lung squamous cell carcinoma (LX-1); test: Effect against lung squamous cell carcinoma (LX-1); set-up: species or system human
[17] = Day 14, mean of 3 experiments, read-out: % Inhibition (Mean)
[18] = Day 14, read-out: Percentage Inhibition of Colony Growth, Experiment #1
[19] = Day 14, read-out: Percentage Inhibition of Colony Growth, Experiment #2
[20] = Day 14, read-out: Percentage Inhibition of Colony Growth, Experiment #3

SMILES: O=c1[nH]cc(F)c(=O)[nH]1 [Composition 5-FU, reference compound]
- EC50 ([1]; read-out: ED(50)): 102 µM

SMILES: CO[C@@]12[C@H](COC(N)=O)C3=C(C(=O)C(C)=C(N)C3=O)N1C[C@@H]1N[C@@H]12 [Mutamycin, reference compound]
- EC50 ([1]; read-out: ED(50)): 18.4 µM

SMILES: C[C@H](Cc1ccc(O)c(O)c1)[C@H](C)Cc1ccc(O)c(O)c1 (relative stereo) [dl-NDGA]
- Tumor Free 60 Days [2]: 4/5
- Tumor Recurrence [2]: 0

SMILES: C[C@H](Cc1ccc(O)c(O)c1)[C@@H](C)Cc1ccc(O)c(O)c1 [NDGA, meso-1,4-bis (3,4-dihydroxyphenyl)-2,3-dimethylbutane]
- inhibition at 18 µM [3, 17]: 32.4%
- inhibition at 18 µM [3, 18]: 20.9%
- inhibition at 18 µM [3, 19]: 36.7%
- inhibition at 18 µM [3, 20]: 39.5%
- inhibition at 27 µM [3, 17]: 47%
- inhibition at 27 µM [3, 18]: 32.8%
- inhibition at 27 µM [3, 19]: 58.9%
- inhibition at 27 µM [3, 20]: 49.3%
- inhibition at 56 µM [3, 17]: 45.3%
- inhibition at 56 µM [3, 18]: 33%
- inhibition at 56 µM [3, 19]: 62.2%
- inhibition at 56 µM [3, 20]: 40.7%
- inhibiting colony growth over the duration of the assay ([3]; especially noticable at 27 and 56 microMolar NDGA): uniformly successful in inhibiting colony growth
- Tumor Free 60 Days [2]: 4/5
- Tumor Recurrence [2]: 0
- clinical outcome [4]: some positive results
- No. Tumor Colonies Surviving ([5]; 5 MicroMolar): 229.7 ± 10.9
- No. Tumor Colonies Surviving ([5]; 10 MicroMolar): 173.3 ± 23.3
- No. Tumor Colonies Surviving ([5]; 18 microMolar): 190 ± 16.3
- No. Tumor Colonies Surviving ([5]; 27 microMolar): 40 ± 16.3
- No. Tumor Colonies Surviving ([5]; 56 microMolar): 3.3 ± 4.7
- inhibition at 10 µM ([5]; Canis lupus familiaris, 10 MicroMolar, survival of clonogenic cells relative to nontreated control): 82.5%
- inhibition at 18 µM ([5]; Canis lupus familiaris, 18 microMolar, survival of clonogenic cells relative to nontreated control): 90.9%
- inhibition at 27 µM ([5]; Canis lupus familiaris, 27 microMolar, survival of clonogenic cells relative to nontreated control): 98.1%
- inhibition at 56 µM ([5]; Canis lupus familiaris, 56 microMolar, survival of clonogenic cells relative to nontreated control): 99.8%
- susceptibility to oxidation [6]: susceptible to oxidation
- effectiveness in treating hepatic and colon carcinoma [7]: effective in treating hepatic and colon carcinoma
- effectiveness against human breast adenocarcinoma (MX-1) [8]: particularly effective
- ED(50) [9]: 13.62 Micromoles
- ED(75) [9]: 25.66 Micromoles
- ED(90) [9]: 48.33 Micromoles
- ED(95) [9]: 74.34 Micromoles
- effectiveness against melanoma (B-16) [10]: particularly effective
- enhancement of X-ray radiation effectiveness [11]: enhance the X-ray radiation effectiveness of the tumor cells without radiation toxicity to surrounding uninvolved skin
- prevention of TPA tumor promotion [12]: nearly completely prevent TPA tumor promotion
- absorption of sunlight ([13]; result in words): strongly absorb sunlight at wavelengths known to produce sunburn
- strong absorption in the ultraviolet region ([13]; solution in methanol): 2816 Angstroms
- reduction of the potential of tumor induction by DMBA [14]: significantly reduce the potential of tumor induction by DMBA
- screening result [15]: negative results
- EC50 ([1]; 50% cell growth inhibition, ± SD, read-out: Calculated ED(50)): 17.6 ± 4.07 µM
- IC75 ([1]; 75% cell growth inhibition, ± SD, read-out: Calculated ED(75)): 26.6 ± 12.1 µM
- IC90 ([1]; 90% cell growth inhibition, ± SD, read-out: Calculated ED(90)): 41.1 ± 28.1 µM
- IC95 ([1]; 95% cell growth inhibition, ± SD, read-out: Calculated ED(95)): 55.9 ± 46.8 µM
- EC50 ([1]; comparison with known anticancer drugs (Table 5B), read-out: ED(50) (the source's name)): 17.6 µM
- effectiveness against lung squamous cell carcinoma (LX-1) [16]: particularly effective

SMILES: COc1cccc2c1C(=O)c1c(O)c3c(c(O)c1C2=O)C[C@@](O)(C(=O)CO)C[C@@H]3O[C@H]1C[C@H](N)[C@H](O)[C@H](C)O1 [Adriamycin, reference compound]
- EC50 ([1]; read-out: ED(50)): 25.6 µM

— US5008294A, “Methods of treating tumors with compositions of catecholic butanes” (priority 1987, dated 1991)
